Values of other authors, collected in patent US20050090549A1, “Intrathecal gabapentin for treatment of pain” (Medtronic, Inc., priority 2003, published 2005).

Details: in water and in both basic and acidic aqueous solutions

In the case of NCC1(CC(=O)O)CCCCC1 [1-(aminomethyl)cyclohexane acetic acid], the solubility is listed as “freely soluble”.
